Measurements published in US20200129630A1, “METHODS FOR TREATING CANCER” (BicycleRD Limited, priority 2018, published 2020).
Where two headings read alike, the source gives them in different places. Numbered stars: 1 amine (or outer) side, 2 acyl side, 3 side chain; on linkers, the order of the positions; unused ones are H or OH. Bridge positions count the residues as written; N and C are the ends. Square brackets hold non-standard residues; d marks the D form. Peptide text beside a SMILES is read from it. 1Nal = N[C@@H](Cc1cccc2ccccc12)C(=O)O; TBMB = c1c(C[*:1])cc(C[*:3])cc1C[*:2]; Tle = CC(C)(C)[C@H](N)C(=O)O; βAla = NCCC(=O)O; Sar = CNCC(=O)O

How the values were obtained:
[1] = [^3H]-DM1 200 μg/kg IV, rat; cited from earlier work
[2] = rat; previously reported; cited from earlier work
[3] = monkey; previously reported; cited from earlier work
[4] = human; previously reported; cited from earlier work
[5] = system: cell migration or invasion; experiment: Cell migration or invasion; type: cell-based
Experimental: (§1) Bicycle drug conjugates (BDCs) with a variety of linkers and cytotoxic payloads were prepared which retained binding to MT1.

[6] = Intrinsic clearance in cryopreserved hepatocytes; type: in vitro ADME
Experimental: Accumulation of the majority of the radioactivity was found in the kidney and bladder irrespective of the labelled peptide dose; this is indicative of either non-saturable excretion or proteolysis followed by excretion through the kidneys. Furthermore, the intrinsic clearance of BT1718 and its Bicycle component, N241 was low when measured in cryopreserved hepatocytes. […] Unconjugated DM1, when radiolabelled, (as [[^3H]-DM1 (91 μCi/kg, 200 μg/kg, IV), was reported to distribute rapidly and extensively to the lungs, liver, kidney, spleen, heart, gastrointestinal tract, and adrenal glands in the rat. The major route of excretion of DM1 was through the bile/faeces, with a minimal amount excreted in the urine, a completely different distribution to BT1718 and its metabolites with little and short lived accumulation seen in other organs such as heart, liver, GI and lungs which would imply that these organs maybe spared systemic toxicity.

[7] = system: catalytic domain of MT1-MMP; experiment: Binding to catalytic domain of MT1-MMP
Experimental: as §1
(§2) BT1718 is a BDC that binds to MT1-MMP and upon cleavage of its disulphide linker, releases the cytotoxic tubulin inhibitor, DM1 (also referred to as DM1-SH).

[8] = in vitro immunogenicity tests, n=50
From the text: These include in vitro tissue microarray in human, rat and monkey tissues and in vitro and in vivo assessment of immunogenicity. In vivo assessments include single dose toxicity in mice and rats, multiple dose range finding studies in mice, rats, dogs and monkeys (non-GLP) and GLP-compliant multiple dose studies in rats and monkeys consisting of 28-day on study phase with a 28-day recovery period.

MMP1, MMP2 and MMP9 = experiment: Effect on related MMP catalytic activity; type: biochemical
Experimental: as §1

[9] = system: MMP15, MMP16, MMP24, MMP1, Pro-MMP1, MMP2; experiment: Binding to related MMP family members
Experimental: as §1, §2

MT1-MMP = MT1-MMP (Homo sapiens, UniProt P50281); experiment: Effect on catalytic (proteolytic) activity of MT1-MMP; type: biochemical; conditions: in vitro
Experimental: as §1, §2

[10] = system: MT1 MMP-expressing NSCLC PDX models; experiment: MT1-MMP-expressing NSCLC PDX models, docetaxel-sensitive and -resistant; type: in vivo; conditions: 60 mg/m^2 once weekly
From the text: Furthermore, BT1718 produced an anti-tumor effect against MT1 MMP-expressing NSCLC PDX models irrespective of their sensitivity to the SOC chemotherapeutic docetaxel. […] The PDX models confirm that MT1-MMP expression is necessary for BT1718 anti-tumor activity.

NMB selected tumors = conditions: cited from earlier work
[11] = system: HER2 positive breast cancer; conditions: third-line, HER2 positive population; cited from earlier work
NSCLC = conditions: second-line treatment, PD-1 checkpoint blockade; cited from earlier work

COc1cc2cc(c1Cl)N(C)C(=O)C[C@H](OC(=O)[C@H](C)N(C)C(=O)CCS)[C@]1(C)O[C@H]1[C@H](C)[C@@H]1C[C@@](O)(NC(=O)O1)[C@H](OC)/C=C/C=C(\C)C2 [DM1]
major route of excretion [1]: bile/faeces | unbound fraction [2]: 3% | unbound fraction [3]: 7% | unbound fraction [4]: 7%

C[C@H](NC(=O)CN(C)C(=O)CN(C)C(=O)CN(C)C(=O)CN(C)C(=O)CN(C)C(=O)CN(C)C(=O)CN(C)C(=O)CN(C)C(=O)CN(C)C(=O)CN(C)C(=O)CCN)C(=O)N[C@H]1CSCc2cc3cc(c2)CSC[C@H](NC(=O)[C@@H](C)NC(=O)[C@H](Cc2cccc4ccccc24)NC(=O)[C@H](CCC(=O)O)NC(=O)[C@H](CC(N)=O)NC(=O)[C@@H](C)NC1=O)C(=O)N[C@@H](CCC(=O)O)C(=O)N[C@@H](CC(=O)O)C(=O)N[C@@H](Cc1ccccc1)C(=O)N[C@@H](Cc1ccc(O)cc1)C(=O)N[C@@H](CC(=O)O)C(=O)N[C@@H](C(C)(C)C)C(=O)N[C@H](C(N)=O)CSC3 [N241] (H-[βAla][Sar][Sar][Sar][Sar][Sar][Sar][Sar][Sar][Sar][Sar]AC[dA]NE[1Nal][dA]CEDFYD[Tle]C-NH2; linker 13-19-26 via TBMB; N-terminus and C-terminus assumed)
impact on cell migration or invasion [5]: no direct impact | intrinsic clearance [6]: low | binding to the catalytic domain [7]: no binding | selectivity over catalytic domain of MT1-MMP [7]: at least 50 fold | positive responses in donor cohort [8]: 2% | impact on related MMP catalytic activity (MMP1, MMP2 and MMP9): no direct impact | selectivity over other related-MMP hemopexin domains [9]: over 200 fold | binding toward closely related MMP family members ([9]; MMP15, MMP16, MMP24, MMP1, Pro-MMP1, MMP2): no binding | impact on the catalytic activity of the protease (MT1-MMP): no direct impact

CC(=O)O[C@@]12CO[C@@H]1C[C@H](O)[C@@]1(C)C(=O)[C@H](O)C3=C(C)[C@@H](OC(=O)[C@H](O)[C@@H](NC(=O)OC(C)(C)C)c4ccccc4)C[C@@](O)([C@@H](OC(=O)c4ccccc4)[C@H]21)C3(C)C [docetaxel]
anti-tumor effect [10]: regression only in the docetaxel-sensitive model

CDX-011: Antibody-Drug Conjugate (ADC) against glycoprotein NMB
ORR (NMB selected tumors): 30%

T-DM1
ORR [11]: 31%

atezolizumab: PD-1 checkpoint blockade agent
ORR (NSCLC): around 20%

nivolumab: PD-1 checkpoint blockade agent
ORR (NSCLC): around 20%

pembrolizumab: PD-1 checkpoint blockade agent
ORR (NSCLC): around 20%
